Laboratory results: paper PMC6356585 (Viruses, 2018)
Counter-ions that a name gives are not always drawn. Like-named read-outs stand apart in the source and are kept apart here. Residues, ends and D or L forms follow the SMILES beside them. *: point of attachment. Cbz = O=C(OCc1ccccc1)*

How the values were obtained:
[1] = tested on: ZIKV SPH; test: Autophagy compound library screen, ZIKV SPH titer (TCID50) in C6/36 cells; format: cell-based, Zika virus; settings: 10 µM compound, MOI 0.1, 96 h, TCID50, ± SEM, three independent trials; for activity at 10 µM: Zika virus, C6/36, read-out: ZIKV SPH Relative Titer in C6/36 Cells
[2] = tested on: Vero cells; test: Cell viability (CellTiter-Glo) of Vero cells; format: cell-based
[3] = tested on: C6/36 cells; format: cell-based, Ae. albopictus
[4] = 10 µM compound, 40 h, CellTiter-Glo, ± SEM, three independent trials
[5] = 10 µM compound, 96 h, CellTiter-Glo, ± SEM, three independent trials

Row | Compound | activity at 10 µM [1] | Vero Viability [2, 4] | C6/36 Viability [3, 5] | Vero Viability ([2]; 10 µM) | C6/36 Viability ([3]; 10 µM) | other results
1 | C[C@H]1CCC/C=C/[C@@H]2C[C@H](O)C[C@H]2[C@H](O)/C=C/C(=O)O1 [Brefeldin A] | 124 ± 25% |  |  |  |  | ZIKV SPH Relative Titer in C6/36 Cells [1]: did not alter viral titers; Vero Viability ([2]; 10 µM compound, 40 h, CellTiter-Glo, ± SEM, three independent trials, 10 µM): 17.0 ± 2.1% of untreated control; Vero Viability ([2]; 10 µM compound, 40 h, CellTiter-Glo, ± SEM, three independent trials, listed as brefeldin A, 10 µM): toxic; C6/36 Viability ([3]; 10 µM compound, 96 h, CellTiter-Glo, ± SEM, three independent trials, 10 µM): 91 ± 8.4% of untreated control; C6/36 Viability ([3]; 10 µM compound, 96 h, CellTiter-Glo, ± SEM, three independent trials, listed as brefeldin A, 10 µM): did not alter viral titers or cell viability
2 | CCN(CC)CCCC(C)Nc1ccnc2cc(Cl)ccc12 (stereo not shown) [Chloroquine] | 126 ± 44.8% | 89.7 ± 4.4% of untreated control | 81 ± 17.1% of untreated control |  |  | 
3 | COC1=C2C[C@@H](C)C[C@H](OC)[C@H](O)[C@@H](C)/C=C(\C)[C@H](OC(N)=O)[C@@H](OC)/C=C\C=C(/C)C(=O)NC(=CC1=O)C2=O [Geldanamycin] | 25.8 ± 14.5% |  | 45 ± 5.8% of untreated control | 61.3 ± 5.7% of untreated control |  | 
4 | CC(C)C[C@@H](C=O)NC(=O)[C@H](CC(C)C)NC(=O)[C@H](CC(C)C)NC(=O)OCc1ccccc1 [MG132] (Cbz-Leu-Leu-Leu-aldehyde) | 9.5 ± 7.1% |  | 31 ± 5.7% of untreated control | 10.7 ± 2.8% of untreated control |  | 
5 | Oc1ccc(-c2nc(-c3ccncc3)c(-c3ccc(F)cc3)[nH]2)cc1 [SB202190] | 25.9 ± 7.4% |  |  | 74.3 ± 5.2% of untreated control | 44 ± 7.9% of untreated control | 
6 | COc1cc(/C=C/C(=O)CC(=O)/C=C/c2ccc(O)c(OC)c2)ccc1O [Curcumin] | 0.3 ± 0.2% |  | 3 ± 0.7% of untreated control | 75.3 ± 11.3% of untreated control |  | 
7 | Clc1cccc(Cl)c1N=C1NCCN1 [Clonidine·HCl] | 95.9 ± 53.4% |  |  | 97.7 ± 2.6% of untreated control | 69 ± 5.4% of untreated control | 
8 | CCCCC[C@H](O)CC(=O)CCc1ccc(O)c(OC)c1 [Compound 6-Gingerol, 6-Gingerol] | 109 ± 9.3% |  | 55 ± 11% of untreated control | 100.0 ± 2.5% of untreated control |  | 
9 | Oc1c2ccccc2c2c3c(cccc13)N=N2 [SP600125] | 50.3 ± 19.8% |  |  | 66.0 ± 2.1% of untreated control | 132 ± 9% of untreated control | 
10 | Cn1cc(C2=C(c3ccc(Cl)cc3Cl)C(=O)NC2=O)c2ccccc21 [SB-216763] | 54 ± 21.7% |  | 63 ± 3.6% of untreated control | 80.0 ± 9% of untreated control |  | 
11 | C/C=C(/C)C(=O)O[C@H]1C(C)=C2[C@H]([C@@H]1OC(=O)CCCCCCC)[C@@](C)(OC(C)=O)C[C@H](OC(=O)CCC)[C@@]1(O)[C@H]2OC(=O)[C@@]1(C)O [Thapsigargin] | 0% |  |  | 38.0 ± 10.5% of untreated control | 23 ± 3.9% of untreated control | 
12 | COc1ccc(CCN(C)CCCC(C#N)(c2ccc(OC)c(OC)c2)C(C)C)cc1OC (stereo not shown) [Verapamil·HCl] | 89 ± 40.8% | 87.7 ± 0.9% of untreated control | 71 ± 2.9% of untreated control |  |  | 
13 | O=C(Nc1ccc([N+](=O)[O-])cc1Cl)c1cc(Cl)ccc1O [Niclosamide] | 0.1% |  | 2 ± 0.3% of untreated control | 29.7 ± 3.8% of untreated control |  | 
14 | Oc1ccc(/C=C/c2cc(O)cc(O)c2)cc1 [Resveratrol] | 155 ± 62% |  | 81 ± 7.5% of untreated control | 87.3 ± 2.3% of untreated control |  | 
15 | C=C[C@@]1(C)CC(=O)[C@]2(O)[C@@]3(C)[C@@H](O)CCC(C)(C)[C@@H]3[C@H](O)[C@H](OC(C)=O)[C@@]2(C)O1 [Forskolin] | 302 ± 18.3% |  |  | 74.7 ± 3.7% of untreated control | 94 ± 12% of untreated control | 
16 | CCOC(=O)C1=C(C)NC(C)=C(C(=O)OC)C1c1cccc([N+](=O)[O-])c1 (stereo not shown) [Nitrendipine] | 220 ± 44.4% | 88.7 ± 1.9% of untreated control | 62 ± 10.5% of untreated control |  |  | 
17 | C[C@H]1CC[C@@]2(OC1)O[C@H]1C[C@H]3[C@@H]4CC[C@@H]5C[C@@H](O[C@@H]6O[C@H](CO)[C@H](O)[C@H](O)[C@H]6O[C@@H]6O[C@H](CO)[C@@H](O)[C@H](O)[C@H]6O)CC[C@]5(C)[C@H]4CC[C@]3(C)[C@H]1[C@@H]2C [Timosaponin A-III] | 13 ± 5.2% |  | 67 ± 3.6% of untreated control | 38.7 ± 11.9% of untreated control |  | 
18 | NCCCCNCCCN [Spermidine] | 90.2 ± 57.4% |  |  | 78.0 ± 17% of untreated control | 70 ± 3% of untreated control | 
19 | Oc1cccc(-c2nc(N3CCOCC3)c3oc4ncccc4c3n2)c1 [PI-103] | 46.2 ± 13.3% |  |  | 43.7 ± 6.4% of untreated control | 39 ± 8.9% of untreated control | 
20 | O=c1cc(N2CCOCC2)oc2c(-c3ccccc3)cccc12 [LY294002] | 548 ± 221% | 56.0 ± 6% of untreated control | 97 ± 17.2% of untreated control |  |  | 

Row | Compound | activity at 10 µM [1] | Vero Viability [2, 4] | C6/36 Viability [3, 5] | Vero Viability ([2]; 10 µM) | C6/36 Viability ([3]; 10 µM) | other results
21 | O=C(/C=C/c1cccnc1)NCCCCC1CCN(C(=O)c2ccccc2)CC1 [FK-866] | 92.7 ± 32.4% |  |  | 32.7 ± 2.7% of untreated control | 48 ± 5.5% of untreated control | 
22 | Cc1ccc(NC(=O)c2ccc(CN3CCN(C)CC3)cc2)cc1Nc1nccc(-c2cccnc2)n1 [Imatinib mesylate] | 5.3 ± 2.2% |  | 19 ± 5.4% of untreated control |  |  | 
23 | COc1ccc(C2CNC(=O)C2)cc1OC1CCCC1 (stereo not shown) [Rolipram] | 215 ± 74.8% |  |  | 91.0 ± 3.2% of untreated control | 127 ± 12.1% of untreated control | 
24 | C[C@@H]1C[C@@H]([C@H](O)CC2CC(=O)NC(=O)C2)C(=O)[C@@H](C)C1 [Cycloheximide] | 0% | 37.3 ± 6.2% of untreated control | 24 ± 3.5% of untreated control |  |  | 
25 | C=C(C)[C@H]1Cc2c(ccc3c2O[C@@H]2COc4cc(OC)c(OC)cc4[C@@H]2C3=O)O1 [Rotenone] | 0.1 ± 0.1% | 61.3 ± 7.7% of untreated control | 17 ± 5.8% of untreated control |  |  | 
26 | C1COC(NC(C2CC2)C2CC2)=N1 [Rilmenidine] | 161 ± 58.1% |  |  | 97.0 ± 2% of untreated control | 79 ± 8.3% of untreated control | 
27 | O=c1[nH]c2ccccc2n1C1CCN(CCCC(c2ccc(F)cc2)c2ccc(F)cc2)CC1 [Pimozide] | 109 ± 22% |  | 49 ± 3.6% of untreated control | 90.0 ± 5.7% of untreated control |  | 
28 | CN(C)C(=N)N=C(N)N [Metformin·HCl] |  |  | 64 ± 10.3% of untreated control | 92.3 ± 4.2% of untreated control |  | 
29 | CC(=O)c1c(O)c(C)c(O)c(Cc2c(O)c3c(c(C(=O)/C=C/c4ccccc4)c2O)OC(C)(C)C=C3)c1O [Rottlerin] | 30.3 ± 16.9% | 80.7 ± 8.5% of untreated control | 40 ± 8.4% of untreated control |  |  | 
30 | Nc1cc(N2CCCCC2)nc(N)[n+]1[O-] [Minoxidil] | 146 ± 16.6% |  | 72 ± 2.6% of untreated control | 96.3 ± 3.2% of untreated control |  | 
31 | COc1cc(CNC(=O)CCCC/C=C/C(C)C)ccc1O [Capsaicin] | 48.1 ± 12% | 91.7 ± 2.4% of untreated control | 66 ± 7.2% of untreated control |  |  | 
32 | C[C@H]1O[C@@H](n2cnc3c(N)ncnc32)C[C@@H]1O [2′,5′-Dideoxyadenosine] | 317 ± 162% | 95.0 ± 1.5% of untreated control | 118 ± 15% of untreated control |  |  | 
33 | Cc1ccc(S(=O)(=O)NC(=O)NN2CCCCCC2)cc1 [Tolazamide] | 120 ± 33.7% |  | 113 ± 7.3% of untreated control | 99.0 ± 1.5% of untreated control |  | 
34 | CO/C1=C\C(C)=C\[C@@H](C)[C@@H](O)[C@@H](C)C/C(C)=C/C=C/[C@H](OC)[C@@H]([C@@H](C)[C@@H](O)[C@H](C)[C@@]2(O)C[C@@H](O)[C@H](C)[C@@H](C(C)C)O2)OC1=O [Bafilomycin A1] | 0% | 55.7 ± 9.5% of untreated control | 36 ± 6.1% of untreated control |  |  | 
35 | CC1=CC(=O)c2c(O)cccc2C1=O [Plumbagin] | 21.4 ± 17.5% |  |  | 2.0 ± 0% of untreated control | 49 ± 1.5% of untreated control | 
36 | CC(C)Cn1cnc2c(N)nc3ccccc3c21 [Imiquimod] | 72.5 ± 18.4% | 91.3 ± 1.2% of untreated control | 37 ± 8.1% of untreated control |  |  | 
37 | CN[C@@H]1C[C@H]2O[C@@](C)([C@@H]1OC)n1c3ccccc3c3c4c(c5c6ccccc6n2c5c31)C(=O)NC4 [Staurosporine] | 0% | 14.0 ± 1.5% of untreated control | 16 ± 5.3% of untreated control |  |  | 
38 | Cn1nnc2c(C(N)=O)ncn2c1=O [Temozolomide] | 219 ± 49.8% |  |  | 104.7 ± 1.9% of untreated control | 113 ± 9.2% of untreated control | 
39 | COCCOC(=O)C1=C(C)NC(C)=C(C(=O)OC(C)C)C1c1cccc([N+](=O)[O-])c1 (stereo not shown) [Nimodipine] | 26.9 ± 13.6% |  | 41 ± 8.4% of untreated control | 92.0 ± 1.5% of untreated control |  | 
